Data: patent publication US20150182546A1, “THERAPEUTIC AGENT FOR ENHANCING MITOCHONDRIAL FUNCTION” (Mitochondrial Concepts LLC, priority 2013, published 2015)

Experiments:
Type in all cases: in vivo, human
[1] = system: pseudohypertrophic muscular dystrophy patients; experiment: Treatment of pseudohypertrophic muscular dystrophy patients with 4SAS
ALS patient = experiment: Treatment of an ALS patient with oral 4SAS; conditions: ALS patient previously unable to speak; oral dosage
patient of advanced age = experiment: Treatment of a patient of advanced age with oral 4SAS; conditions: patient in early 70s; oral dosage
[2] = Oral administration of adenylosuccinate in clinical trials
From the text: The administration of the adenylosuccinate may be accomplished via several approaches. It is possible to administer adenylosuccinate by means of a sub-cutaneous pump. […] Alternatively, adenylosuccinate might be suitably packaged for timed release or trans-dermal application.

O=C([O-])C[C@H](Nc1ncnc2c1ncn2[C@@H]1O[C@H](COP(=O)([O-])[O-])[C@@H](O)[C@H]1O)C(=O)[O-].[Na+].[Na+].[Na+].[Na+] [4SAS, tetrasodium adenylosuccinate]
Improved? ([1]; Patient A, severity 1, therapy 81-89, 1 mg-10 mg, 10-20 mg, 100 mg, 200 mg): Yes
Improved? ([1]; Patient C, severity 3, therapy 81-84, 1 mg-10 mg, 10-20 mg): Yes
Improved? ([1]; Patient D, severity 4, therapy 81-84, 1 mg-10 mg, 10-20 mg): Yes
Improved? ([1]; Patient E, severity 5, therapy 81-84, 1 mg-10 mg, 10-20 mg): Yes
Improved? ([1]; Patient F, therapy 88-89, 70 mg): Yes
Improved? ([1]; Patient G, therapy 87-89, 150 mg, 333 mg): Yes
Improved? ([1]; Patient H, therapy 88-89, 200 mg, 300 mg): Yes
Improved? ([1]; Patient I, therapy 86-89, 10 mg, 25 mg, 100 mg): Yes
Improved? ([1]; Patient J, therapy 86-89, 1200 mg): Yes
Improved? ([1]; Patient K, therapy 87-89, 200 mg, 300 mg): Yes
Improved? ([1]; Patient L, therapy 87-89, dosage small): Yes
Improved? ([1]; Patient N, therapy 89-89, 300 mg): Yes
strength and related functionality ([1]; thirteen young PMD patients at various stages, intraperitoneal, subcutaneous and oral dosages): increased strength and related functionality
capacity to speak (ALS patient): temporarily regained capacity to speak intelligibly
energy (patient of advanced age): increased energy
healing (patient of advanced age): accelerated healing
posture (patient of advanced age): improved posture

O=C(O)CC(Nc1ncnc2c1ncn2[C@@H]1O[C@H](COP(=O)(O)O)[C@@H](O)[C@H]1O)C(=O)O (stereo partly drawn) [adenylosuccinate]
efficacy of oral administration [2]: proven efficacious
